# Literature values as cited in patent US20070141150A1, “Pharmaceutical composition” (priority 2003, published 2007).
# Where a name gives a salt, the structure may show the parent alone.
# Conditions: interaction between propranolol and the polyanionic methacrylic acid copolymer
compound,measurement,value
"CC(C)NCC(O)COc1cccc2ccccc12 (stereo not shown) [propranolol, propranolol hydrochloride]",Hill coefficient,1.5
